Measurements as given in the CheMixHub drug solubility set.

Test: xn = mol fraction of the nth substance listed, in the solute-free solvent

COC1=CC(=O)CC(C)C12Oc1c(Cl)c(OC)cc(OC)c1C2=O (stereo not given) + CC(=O)CC(C)C + CC(C)O
solubility (g/100 g solution)
Settings | 283.15 K | 288.15 K | 293.15 K | 298.15 K | 303.15 K | 308.15 K | 313.15 K | 318.15 K | 323.15 K
x2 = 0.1 | 0.154 | 0.185 | 0.226 | 0.307 | 0.335 | 0.47 | 0.53 | 0.62 | 0.76
x2 = 0.2 | 0.251 | 0.304 | 0.345 | 0.441 | 0.514 | 0.683 | 0.713 | 0.852 | 1.01
x2 = 0.3 | 0.353 | 0.405 | 0.473 | 0.568 | 0.67 | 0.869 | 0.938 | 1.11 | 1.3
x2 = 0.4 | 0.433 | 0.519 | 0.591 | 0.73 | 0.812 | 1.04 | 1.09 | 1.27 | 1.46
x2 = 0.5 | 0.533 | 0.589 | 0.688 | 0.841 | 0.939 | 1.19 | 1.23 | 1.42 | 1.62
x2 = 0.6 | 0.595 | 0.655 | 0.751 | 0.902 | 1.03 | 1.27 | 1.33 | 1.5 | 1.72
x2 = 0.7 | 0.642 | 0.758 | 0.833 | 0.943 | 1.08 | 1.31 | 1.37 | 1.58 | 1.77
x2 = 0.8 | 0.675 | 0.753 | 0.823 | 0.973 | 1.1 | 1.33 | 1.39 | 1.59 | 1.79
x2 = 0.9 | 0.675 | 0.727 | 0.817 | 0.955 | 1.1 | 1.29 | 1.35 | 1.51 | 1.68

CC(=O)OC(c1ccccc1)C(Cl)(Cl)Cl (stereo not given) + CC(=O)O + O
solubility (g/100 g solution)
Settings | 288.15 K | 293.15 K | 298.15 K | 303.15 K | 308.15 K | 313.15 K | 318.15 K | 323.15 K | 328.15 K
x2 = 0.4 | 0.229 | 0.34 | 0.495 | 0.65 | 0.966 | 1.43 | 1.81 | 2.64 | 3.12
x2 = 0.5 | 0.758 | 0.967 | 1.23 | 1.62 | 2.27 | 2.97 | 3.85 | 5.28 | 7.16
x2 = 0.6 | 1.45 | 2.06 | 2.67 | 3.47 | 4.47 | 5.57 | 7.52 | 10.1 | 13.4
x2 = 0.7 | 2.88 | 3.73 | 4.74 | 6.03 | 7.75 | 9.86 | 12.5 | 16.9 | 23.4
x2 = 0.8 | 4.78 | 6.15 | 7.58 | 9.47 | 12 | 15.1 | 19.5 | 25.6 | 33.9
x2 = 0.9 | 7.43 | 9.03 | 10.9 | 13.5 | 17 | 21.2 | 26.5 | 33.8 | 42.7
